Data on 82 molecules can be found in PubChem BioAssay AID1205 (EPA DSSTox, 2008).

The structures appear in SMILES notation. Activity calls are given as the source filed them.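 The calls were made as follows: active = tumour findings in long-term animal cancer tests in more than one sex, species or organ; inactive = no tumour finding and more than one negative test.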

The nature of this data set: DSSTox (CPDBAS) Carcinogenic Potency Database Summary MultiCellCall Results. The conditions noted are these: animal carcinogenicity bioassays, multi-cell call summary. The text has this: The Carcinogenic Potency Database (CPDB) is a unique and widely used international resource of the results of over 6500 chronic, long-term animal cancer tests on over 1500 chemical substances. The CPDB provides easy access to the bioassay literature, with qualitative and quantitative analyses of both positive and negative experiments that have been published over the past 50 years in the general literature and by the National Cancer Institute/National Toxicology Program. The CPDB standardizes the diverse literature of cancer bioassays that vary widely in protocol, histopathological examination and nomenclature, and in the published author's choices of what information to provide in their papers. Results are reported in the CPDB for tests in rats, mice, hamsters, dogs, and nonhuman primates, and are based on the most positive result among all experiments for each sex-species. The DSSTox CPDBAS (all species) file incorporates data from the CPDB Summary Tables for the full list of over 1500 chemical substances tested in at least one species. A summary MultiCellCall, based on experimental bioassay results of one or more species, is provided in the DSSTox CPDBAS file (see Source URL) for more than 1150 chemical substances.
Associated TD50 values and tumor site details for the relevant species/sex experiment supporting the overall CPDBAS MultiSiteCall are provided in the full DSSTox CPDBAS file (see Comment) and the corresponding CPDBAS Species Bioassay in PubChem. ActivityScore is computed as follows: multispecies=50, multisex=30, multisite=20, with combination scores computed as sums of these values, e.g. multispecies+multisite=70.
As to `ClC(Cl)=C(Cl)Cl`, the outcome is “active; multisite active; multisex active; multispecies active”.

`Cc1ccc2c(-c3cccc(O)c3)nc(=O)n(C(C)C)c2c1`: the outcome is “inactive; multisex inactive; multispecies inactive”.

For `CN(N=O)C1=Nc2ccc(Cl)cc2C(c2ccccc2)=[N+]([O-])C1`, the outcome is “inactive; multisex inactive”.

For the molecule `Nc1ccc2ccccc2c1S(=O)(=O)O`, the outcome was “inactive; multisex inactive”.

`CC(C)CON=O`: the outcome is “active; multisex active; multispecies active”.

As to `O=c1cc[nH]c(=O)[nH]1`, the outcome is “active; multisex active; multispecies active”.

For the molecule `C=CCOC(=O)CC(C)C`, the outcome is “active; multisex active; multispecies active”.

Take `C=Cc1ccc(C)cc1`: the outcome was “inactive; multisex inactive”.

With `S=C(NC1CCCCC1)NC1CCCCC1`, the outcome was “inactive; multisex inactive; multispecies inactive”.

Consider `NNC(N)=O`, for which the outcome was “active; multisite active; multisex active”.

For the molecule `COc1ccc(C(Cl)=C(c2ccc(OC)cc2)c2ccc(OC)cc2)cc1`, the outcome was “inactive; multisex inactive”.

Take `ClCCl`: the outcome was “active; multisite active; multisex active; multispecies active”.

On to `CCN(N=O)C(N)=O`, for which the outcome was “active; multisite active; multisex active”.

As to `COc1c(Cl)c(Cl)c(Cl)c(Cl)c1Cl`, the outcome was “active; multisite active; multispecies active”.

For the molecule `C[N+](C)(C)CCCl`, the outcome is “inactive; multisex inactive; multispecies inactive”.

For `CC1=C(/C=C/C(C)=C/C=C/C(C)=C/C(=O)O)C(C)(C)CCC1`, the outcome is “inactive; multisex inactive; multispecies inactive”.

With `Cn1cc(C(=O)O)c(=O)c2ccc(/C=C/c3ccc([N+](=O)[O-])o3)nc21`, the outcome is “active; multisite active”.

Regarding `CC#N`, the outcome is “inactive; multisex inactive; multispecies inactive”.

As for `C=CF`, the outcome is “active; multisite active; multisex active; multispecies active”.

`CN(N=O)C(=O)c1ccccc1`: the outcome was “active; multisite active; multisex active”.

In the case of `Cc1ccc2c(c1N)C(=O)c1ccccc1C2=O`, the outcome was “active; multisite active; multisex active; multispecies active”.

For the molecule `P`, the outcome was “inactive; multisex inactive”.

In the case of `COc1ccc(N)cc1`, the outcome is “inactive; multisex inactive; multispecies inactive”.

For the molecule `OCCO`, the outcome was “inactive; multisex inactive”.

`Brc1cc(Br)c(-c2cc(Br)c(Br)cc2Br)cc1Br`: the outcome was “active; multisex active; multispecies active”.

On to `CC(N)=S`, for which the outcome was “active; multisex active; multispecies active”.

`C=CC=O`: the outcome was “inactive; multisex inactive; multispecies inactive”.

With `O=C1C(Cl)=C(Cl)C(=O)C(Cl)=C1Cl`, the outcome is “inactive; multisex inactive”.

Regarding `Cc1ccccc1OCC(O)CNCCn1cc(C)c(=O)[nH]c1=O` (configuration not stated), the outcome was “inactive; multisex inactive”.

Turning to `Oc1c(Cl)cc(Cl)cc1Sc1cc(Cl)cc(Cl)c1O`, the outcome was “inactive; multisex inactive”.

In the case of `O=C(O)CC[N+](=O)[O-]`, the outcome was “inactive; multisex inactive; multispecies inactive”.

With `BrCCBr`, the outcome is “active; multisite active; multisex active; multispecies active”.

For the molecule `NNc1nc(-c2ccc(N)cc2)cs1`, the outcome is “active; multisite active; multispecies active”.

`O=C1O[C@H]([C@@H](O)CO)C(O)=C1O`: the outcome was “inactive; multisex inactive; multispecies inactive”.

For the molecule `CNC(=O)Oc1cccc2c1OC(C)(C)C2`, the outcome was “inactive; multisex inactive”.

With `CN(C)C(=O)NC1CC2CC1C1CCCC21` (configuration not stated), the outcome was “inactive; multisex inactive”.

In the case of `CCN(Cc1cccc(S(=O)(=O)[O-])c1)c1ccc(C(=C2C=CC(=[N+](C)C)C=C2)c2ccc(N(CC)Cc3cccc(S(=O)(=O)O)c3)cc2)cc1`, the outcome is “active; multisite active”.

As for `O=C1O[C@H]([C@H](O)CO)C(O)=C1O`, the outcome is “inactive; multisex inactive; multispecies inactive”.

Regarding `Nc1ccc(-c2ccccc2)cc1`, the outcome is “active; multisite active; multisex active”.

With `c1ccc(Nc2ccc3ccccc3c2)cc1`, the outcome was “inactive; multisex inactive; multispecies inactive”.

In the case of `CCBr`, the outcome is “active; multisite active; multisex active; multispecies active”.

As for `O=C(O)c1ccccc1`, the outcome is “inactive; multisex inactive; multispecies inactive”.

Turning to `CCN=[N+]([O-])CC`, the outcome was “active; multisite active”.

Turning to `CC(=O)Nc1ccc(O)cc1`, the outcome was “active; multisite active; multisex active; multispecies active”.

Regarding `[C-]1=CC=CC1.[C-]1=CC=CC1.[Cl-].[Cl-].[Ti+4]`, the outcome was “inactive; multisex inactive”.

Take `S=C(SN1CCOCC1)N1CCOCC1`: the outcome is “active; multisite active; multisex active”.

In the case of `C1COCCO1`, the outcome was “active; multisite active; multisex active; multispecies active”.

As to `CCOC(N)=O`, the outcome was “active; multisite active; multisex active; multispecies active”.

As to `ClC1=C(Cl)C(Cl)(Cl)C(Cl)=C1Cl`, the outcome was “inactive; multisex inactive; multispecies inactive”.

Regarding `CC(C)NCC(O)c1ccc(NS(C)(=O)=O)cc1` (configuration not stated), the outcome was “inactive; multisex inactive; multispecies inactive”.

With `CCNC(=S)NCC`, the outcome is “active; multisex active”.

Turning to `Cc1ccc(N=Nc2c(O)ccc3ccccc23)c([N+](=O)[O-])c1`, the outcome was “active; multisite active; multisex active; multispecies active”.

For the molecule `CC(=O)Nc1ccc(C(=O)CCl)cc1`, the outcome was “inactive; multisex inactive; multispecies inactive”.

On to `CCNc1nc(Cl)nc(NC(C)C)n1`, for which the outcome is “active; multisite active; multisex active”.

In the case of `O=C(Nc1nc(-c2ccc([N+](=O)[O-])o2)cs1)C(F)(F)F`, the outcome is “active; multisite active; multispecies active”.

With `CCCCCCCCCCCCN=C(N)N`, the outcome is “inactive; multisex inactive”.

Regarding `CC(C)OC(=O)Nc1cccc(Cl)c1`, the outcome is “inactive; multisex inactive; multispecies inactive”.

`Cc1ccc(N)cc1N`: the outcome is “active; multisite active; multisex active; multispecies active”.

Turning to `CC(C)=CCl`, the outcome was “active; multisite active; multisex active; multispecies active”.

Regarding `CC[C@H](OC(C)=O)C(C[C@H](C)N(C)C)(c1ccccc1)c1ccccc1`, the outcome was “active; multisex active”.

For the molecule `O=C1c2ccccc2C(=O)c2ccccc21`, the outcome was “inactive; multisex inactive”.

With `CCOP(=S)(OCC)Oc1ccc2c(C)c(Cl)c(=O)oc2c1`, the outcome is “inactive; multisex inactive; multispecies inactive”.

Consider `CNNCc1ccc(C(=O)NC(C)C)cc1`, for which the outcome is “active; multisite active; multisex active; multispecies active”.

On to `CC(=O)O[C@H]1CC[C@@]2(C)C(=CC[C@@H]3[C@@H]2CC[C@]2(C)C(=O)CC[C@@H]32)C1`, for which the outcome was “active; multisex active”.

Turning to `O=S1OCC2C(CO1)C1(Cl)C(Cl)=C(Cl)C2(Cl)C1(Cl)Cl` (configuration not stated), the outcome is “inactive; multisex inactive; multispecies inactive”.

In the case of `COc1ccccc1[N+](=O)[O-]`, the outcome is “active; multisite active; multisex active; multispecies active”.

Turning to `NCCNc1cccc2ccccc12`, the outcome was “inactive; multisex inactive; multispecies inactive”.

For the molecule `CC(=O)Nc1ccc2c(c1)C(=O)c1ccccc1-2`, the outcome is “active; multisite active”.

Regarding `COc1ccc(OC)c(/C=C/c2ccc(N)cc2)c1`, the outcome was “active; multisite active; multispecies active”.

Take `CCn1cc(C(=O)O)c(=O)c2ccc(C)nc21`: the outcome is “active; multisite active; multisex active”.

Regarding `C[C@]12C/C(=C/O)C(=O)C[C@@H]1CC[C@@H]1[C@@H]2CC[C@@]2(C)[C@H]1CC[C@]2(C)O`, the outcome is “active; multisite active”.

Regarding `Cc1ccc(Cl)cc1N`, the outcome is “active; multisite active; multisex active”.

Consider `COc1ccc([N+](=O)[O-])cc1N`, for which the outcome was “active; multisite active; multisex active; multispecies active”.

As for `CN1[C@@H]2CC[C@H]1CC(OC(=O)C(CO)c1ccccc1)C2` (some centres not stated), the outcome was “inactive; multisex inactive”.

Regarding `O=C1CCC(=O)O1`, the outcome is “inactive; multisex inactive; multispecies inactive”.

Consider `CCC(Br)(CC)C(=O)NC(N)=O`, for which the outcome was “inactive; multisex inactive; multispecies inactive”.

As to `COCCl`, the outcome is “active; multispecies active”.

`COC1=CC(=O)C[C@@H](C)[C@]12Oc1c(Cl)c(OC)cc(OC)c1C2=O`: the outcome was “active; multisite active; multisex active”.

On to `OCc1ccccc1`, for which the outcome is “inactive; multisex inactive; multispecies inactive”.

For the molecule `OCC(O)CCl` (configuration not stated), the outcome was “inactive; multisex inactive”.

With `CCN(Cc1cccc(S(=O)(=O)O)c1)c1ccc(C(=C2C=CC(=[N+](CC)Cc3cccc(S(=O)(=O)[O-])c3)C=C2)c2ccccc2)cc1`, the outcome is “active; multisite active; multisex active”.

Turning to `[N-]=[N+]=O`, the outcome was “inactive; multisex inactive”.
